# Article PMC9501633, “Synthesis, Characterisation and Mechanism of Action of Anticancer 3-Fluoroazetidin-2-ones” (Pharmaceuticals, 2022)
# Assays:
# Assay type in all cases: cell-based, human
# HOP-92 = experiment: NCI 60 cell line screen, NSCLung
# 786–0 = experiment: NCI 60 cell line screen, Renal
# K-562 = experiment: NCI 60 cell line screen, Leukaemia
# HT29 = experiment: NCI 60 cell line screen, Colon
# M14 = experiment: NCI 60 cell line screen, Melanoma; conditions: for GI50: 5-dose, 48 h
# A498 = experiment: NCI 60 cell line screen, Renal
# MALME-3M = experiment: NCI 60 cell line screen, Melanoma
# SW-620 = experiment: NCI 60 cell line screen, Colon
# UACC-257 = experiment: NCI 60 cell line screen, Melanoma
# RXF 393 = experiment: NCI 60 cell line screen, Renal
# SK-MEL-2 = experiment: NCI 60 cell line screen, Melanoma
# UO-31 = experiment: NCI 60 cell line screen, Renal
# TK-10 = experiment: NCI 60 cell line screen, Renal
# COLO 205 = experiment: NCI 60 cell line screen, Colon
# SK-OV-3 = experiment: NCI 60 cell line screen, Ovarian
# HL-60(TB) = experiment: NCI 60 cell line screen, Leukaemia
# SF-268 = experiment: NCI 60 cell line screen, CNS
# NCI-H322M = experiment: NCI 60 cell line screen, NSCLung
# OVCAR-4 = experiment: NCI 60 cell line screen, Ovarian
# SN12C = experiment: NCI 60 cell line screen, Renal
# MDA-MB-435 = experiment: NCI 60 cell line screen, Melanoma
# OVCAR-5 = experiment: NCI 60 cell line screen, Ovarian
# MOLT-4 = experiment: NCI 60 cell line screen, Leukaemia
# DU-145 = experiment: NCI 60 cell line screen, Prostate
# HCT-15 = experiment: NCI 60 cell line screen, Colon
# NCI-H226 = experiment: NCI 60 cell line screen, NSCLung
# A549/A TCC = experiment: NCI 60 cell line screen, NSCLung
# MCF7 = experiment: NCI 60 cell line screen, Breast
smiles,measurement,setting,value
"COc1ccc(C2C(F)C(=O)N2c2cc(OC)c(OC)c(OC)c2)cc1F (stereo not drawn) [Compound 33, 3-Fluoro-4-(3-fluoro-4-methoxyphenyl)-1-(3,4,5-trimethoxyphenyl)azetidin-2-one]",TGI,"HOP-92; 5-dose, 48 h",63900 nM
same,GI50,"HOP-92; Homo sapiens, 5-dose, 48 h",266 nM
same,inhibition at 10 µM,"HOP-92; Homo sapiens, one dose 10 µM",67.7%
same,Growth %,HOP-92; one dose 10 µM,32.28%
same,Growth %,"786–0; 786-0, one dose 10 µM",22.92%
same,TGI,"786–0; 786–0, 5-dose, 48 h",15100 nM
same,inhibition at 10 µM,"786–0; Homo sapiens, 786-0, one dose 10 µM",77.1%
same,GI50,"786–0; Homo sapiens, 786–0, 5-dose, 48 h",46.2 nM
same,GI50,"K-562; 5-dose, 48 h",38.3 nM
same,TGI,"K-562; 5-dose, 48 h",>100000 nM
same,GI50,"K-562; Homo sapiens, K562, 48 h, 5-dose, 48 h",38 nM
same,inhibition at 10 µM,"K-562; Homo sapiens, K562, one dose 10 µM",90.5%
same,Growth %,K-562; one dose 10 µM,9.45%
same,TGI,"HT29; 5-dose, 48 h",>100000 nM
same,GI50,"HT29; Homo sapiens, HT-29, 5-dose, 48 h",134 nM
same,inhibition at 10 µM,"HT29; Homo sapiens, HT-29, one dose 10 µM",96.3%
same,Growth %,HT29; one dose 10 µM,3.73%
same,GI50,M14,25.4 nM
same,GI50,"M14; Homo sapiens, M14, 48 h",25 nM
same,inhibition at 10 µM,"M14; Homo sapiens, one dose 10 µM",98.1%
same,Growth %,M14; one dose 10 µM,1.91%
same,TGI,"A498; 5-dose, 48 h",8080 nM
same,GI50,"A498; Homo sapiens, 5-dose, 48 h",847 nM
same,inhibition at 10 µM,"A498; Homo sapiens, one dose 10 µM",106%
same,Growth %,A498; one dose 10 µM,-5.5%
same,TGI,"MALME-3M; 5-dose, 48 h",>100000 nM
same,inhibition at 10 µM,"MALME-3M; Homo sapiens, one dose 10 µM",26%
same,Growth %,MALME-3M; one dose 10 µM,74.02%
same,TGI,"SW-620; 5-dose, 48 h",>100000 nM
same,GI50,"SW-620; Homo sapiens, 5-dose, 48 h",56.2 nM
same,inhibition at 10 µM,"SW-620; Homo sapiens, one dose 10 µM",71.3%
same,Growth %,SW-620; one dose 10 µM,28.73%
same,TGI,"UACC-257; 5-dose, 48 h",>100000 nM
same,GI50,"UACC-257; Homo sapiens, 5-dose, 48 h",> 100000 nM
same,inhibition at 10 µM,"UACC-257; Homo sapiens, one dose 10 µM",61.3%
same,Growth %,UACC-257; one dose 10 µM,38.74%
same,GI50,"RXF 393; 5-dose, 48 h",39.8 nM
same,TGI,"RXF 393; 5-dose, 48 h",60000 nM
same,GI50,"RXF 393; Homo sapiens, RXF 393, 48 h, 5-dose, 48 h",39 nM
same,inhibition at 10 µM,"RXF 393; Homo sapiens, one dose 10 µM",71.2%
same,Growth %,RXF 393; one dose 10 µM,28.8%
same,TGI,"SK-MEL-2; 5-dose, 48 h",>100000 nM
same,GI50,"SK-MEL-2; Homo sapiens, 5-dose, 48 h",303 nM
same,inhibition at 10 µM,"SK-MEL-2; Homo sapiens, one dose 10 µM",41.2%
same,Growth %,SK-MEL-2; one dose 10 µM,58.83%
same,TGI,"UO-31; 5-dose, 48 h",>100000 nM
same,GI50,"UO-31; Homo sapiens, 5-dose, 48 h",171 nM
same,inhibition at 10 µM,"UO-31; Homo sapiens, one dose 10 µM",56.8%
same,Growth %,UO-31; one dose 10 µM,43.2%
same,TGI,"TK-10; 5-dose, 48 h",>100000 nM
same,GI50,"TK-10; Homo sapiens, 5-dose, 48 h",38600 nM
same,inhibition at 10 µM,"TK-10; Homo sapiens, one dose 10 µM",35.6%
same,Growth %,TK-10; one dose 10 µM,64.4%
same,TGI,"COLO 205; 5-dose, 48 h",503 nM
same,GI50,"COLO 205; Homo sapiens, 5-dose, 48 h",156 nM
same,CC50,"COLO 205; Homo sapiens, 5-dose, 48 h, read-out: LC50 (the source's name)",8230 nM
same,inhibition at 10 µM,"COLO 205; Homo sapiens, one dose 10 µM",168%
same,Growth %,COLO 205; one dose 10 µM,-68%
same,TGI,"SK-OV-3; 5-dose, 48 h",>100000 nM
same,GI50,"SK-OV-3; Homo sapiens, 5-dose, 48 h",3450 nM
same,inhibition at 10 µM,"SK-OV-3; Homo sapiens, one dose 10 µM",66.6%
same,Growth %,SK-OV-3; one dose 10 µM,33.36%
same,TGI,"HL-60(TB); 5-dose, 48 h",399 nM
same,GI50,"HL-60(TB); Homo sapiens, 5-dose, 48 h",80.5 nM
same,inhibition at 10 µM,"HL-60(TB); Homo sapiens, one dose 10 µM",115%
same,Growth %,HL-60(TB); one dose 10 µM,-14.69%
same,TGI,"SF-268; 5-dose, 48 h",>100000 nM
same,GI50,"SF-268; Homo sapiens, 5-dose, 48 h",324 nM
same,inhibition at 10 µM,"SF-268; Homo sapiens, one dose 10 µM",66.9%
same,Growth %,SF-268; one dose 10 µM,33.13%
same,TGI,"NCI-H322M; 5-dose, 48 h",>100000 nM
same,GI50,"NCI-H322M; Homo sapiens, 5-dose, 48 h",1630 nM
same,inhibition at 10 µM,"NCI-H322M; Homo sapiens, one dose 10 µM",53.5%
same,Growth %,NCI-H322M; one dose 10 µM,46.45%
same,TGI,"OVCAR-4; 5-dose, 48 h",>100000 nM
same,GI50,"OVCAR-4; Homo sapiens, 5-dose, 48 h",966 nM
same,inhibition at 10 µM,"OVCAR-4; Homo sapiens, one dose 10 µM",45.1%
same,Growth %,OVCAR-4; one dose 10 µM,54.92%
same,TGI,"SN12C; 5-dose, 48 h",>100000 nM
same,GI50,"SN12C; Homo sapiens, 5-dose, 48 h",482 nM
same,inhibition at 10 µM,"SN12C; Homo sapiens, one dose 10 µM",66.7%
same,Growth %,SN12C; one dose 10 µM,33.29%
same,GI50,"MDA-MB-435; Homo sapiens, 5-dose, 48 h",29.1 nM
same,inhibition at 10 µM,"MDA-MB-435; Homo sapiens, one dose 10 µM",99.7%
same,Growth %,MDA-MB-435; one dose 10 µM,0.35%
same,TGI,"OVCAR-5; 5-dose, 48 h",>100000 nM
same,GI50,"OVCAR-5; Homo sapiens, 5-dose, 48 h",423 nM
same,inhibition at 10 µM,"OVCAR-5; Homo sapiens, one dose 10 µM",56.4%
same,Growth %,OVCAR-5; one dose 10 µM,43.57%
same,TGI,"MOLT-4; 5-dose, 48 h",93400 nM
same,GI50,"MOLT-4; Homo sapiens, 5-dose, 48 h",146 nM
same,inhibition at 10 µM,"MOLT-4; Homo sapiens, one dose 10 µM",80.3%
same,Growth %,MOLT-4; one dose 10 µM,19.7%
same,TGI,"DU-145; 5-dose, 48 h",>100000 nM
same,GI50,"DU-145; Homo sapiens, 5-dose, 48 h",269 nM
same,inhibition at 10 µM,"DU-145; Homo sapiens, one dose 10 µM",90.5%
same,Growth %,DU-145; one dose 10 µM,9.46%
same,TGI,"HCT-15; 5-dose, 48 h",>100000 nM
same,GI50,"HCT-15; Homo sapiens, 5-dose, 48 h",66.4 nM
same,inhibition at 10 µM,"HCT-15; Homo sapiens, one dose 10 µM",86.4%
same,Growth %,HCT-15; one dose 10 µM,13.63%
same,TGI,"NCI-H226; 5-dose, 48 h",>100000 nM
same,GI50,"NCI-H226; Homo sapiens, 5-dose, 48 h",22200 nM
same,inhibition at 10 µM,"NCI-H226; Homo sapiens, one dose 10 µM",41%
same,Growth %,NCI-H226; one dose 10 µM,58.99%
same,TGI,"A549/A TCC; 5-dose, 48 h",>100000 nM
same,GI50,"A549/A TCC; Homo sapiens, 5-dose, 48 h",394 nM
same,inhibition at 10 µM,"A549/A TCC; Homo sapiens, one dose 10 µM",84.7%
same,Growth %,A549/A TCC; one dose 10 µM,15.33%
same,inhibition at 10 µM,"MCF7; Homo sapiens, MCF7, MCF7, one dose 10 µM",87.2%
same,GI50,"MCF7; Homo sapiens, MCF7, 5-dose, 48 h",36.4 nM
same,TGI,"MCF7; MCF7, 5-dose, 48 h",>100000 nM
same,Growth %,"MCF7; MCF7, one dose 10 µM",12.83%
same,Inhibition %,"MCF7; MCF7, one dose 10 µM",87.2%
